Assay results reported in PubChem BioAssay (NCI).
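A five-concentration, 48-hour dose response in 96-well plates underlies each endpoint, interpolated linearly between surrounding concentrations. GI50 is the concentration that inhibits growth by half. TGI: concentration producing complete growth inhibition.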

Experiments:
Assay in all cases: growth of human tumour cells (NCI), 48 h
IGROV1 ovarian = system: IGROV1 ovarian
HCC-2998 colon = system: HCC-2998 colon
NCI/ADR-RES ovarian = system: NCI/ADR-RES ovarian
OVCAR-5 ovarian = system: OVCAR-5 ovarian
SK-OV-3 ovarian = system: SK-OV-3 ovarian
HCT-116 colon = system: HCT-116 colon
CAKI-1 renal = system: CAKI-1 renal
786-0 renal = system: 786-0 renal
COLO 205 colon = system: COLO 205 colon
SK-MEL-28 melanoma = system: SK-MEL-28 melanoma
HOP-62 NSCLC = system: HOP-62 NSCLC
UO-31 renal = system: UO-31 renal
HT29 colon = system: HT29 colon
SNB-19 CNS = system: SNB-19 CNS
HL-60(TB) leukemia = system: HL-60(TB) leukemia
OVCAR-3 ovarian = system: OVCAR-3 ovarian
MCF7 breast = system: MCF7 breast
EKVX NSCLC = system: EKVX NSCLC
MALME-3M melanoma = system: MALME-3M melanoma
K-562 leukemia = system: K-562 leukemia
MDA-MB-231 breast = system: MDA-MB-231 breast
HS 578T breast = system: HS 578T breast
OVCAR-4 ovarian = system: OVCAR-4 ovarian
M14 melanoma = system: M14 melanoma
CCRF-CEM leukemia = system: CCRF-CEM leukemia
U251 CNS = system: U251 CNS
LOX IMVI melanoma = system: LOX IMVI melanoma
HCT-15 colon = system: HCT-15 colon
SNB-75 CNS = system: SNB-75 CNS
RPMI-8226 leukemia = system: RPMI-8226 leukemia
NCI-H226 lung = system: NCI-H226 lung
NCI-H23 lung = system: NCI-H23 lung
SF-268 CNS = system: SF-268 CNS
SW-620 colon = system: SW-620 colon
MDA-MB-435 = system: MDA-MB-435
KM12 colon = system: KM12 colon
UACC-62 melanoma = system: UACC-62 melanoma
SN12C renal = system: SN12C renal
NCI-H460 lung = system: NCI-H460 lung
NCI-H522 lung = system: NCI-H522 lung
PC-3 prostate = system: PC-3 prostate
SK-MEL-5 melanoma = system: SK-MEL-5 melanoma
A549 NSCLC = system: A549 NSCLC
HOP-92 NSCLC = system: HOP-92 NSCLC
T-47D breast = system: T-47D breast
SF-539 CNS = system: SF-539 CNS
TK-10 renal = system: TK-10 renal
SR leukemia = system: SR leukemia
DU-145 prostate = system: DU-145 prostate
MOLT-4 leukemia = system: MOLT-4 leukemia
ACHN renal = system: ACHN renal
A498 renal = system: A498 renal
SF-295 CNS = system: SF-295 CNS

With `NC(N)=N/N=C/c1c(-c2cc([N+](=O)[O-])c(Cl)cc2Cl)nc2sccn12` the GI50 (IGROV1 ovarian) was 0.712 µM, the TGI (IGROV1 ovarian) was 2.03 µM and the GI50 (HCC-2998 colon) was 1.36 µM. For the same molecule, the TGI (HCC-2998 colon) was 2.76 µM, the TGI (NCI/ADR-RES ovarian) was greater than 100 µM and the TGI (OVCAR-5 ovarian) was 3.39 µM. It also gave a TGI (SK-OV-3 ovarian) of 3.39 µM, a GI50 (HCT-116 colon) of 0.272 µM and a TGI (HCT-116 colon) of 1.02 µM. The TGI (CAKI-1 renal) was 33.7 µM, the TGI (786-0 renal) was 3.11 µM and the GI50 (COLO 205 colon) was 1.38 µM. The TGI (COLO 205 colon) was 2.84 µM, the TGI (SK-MEL-28 melanoma) was 2.67 µM and the TGI (HOP-62 NSCLC) was 3.44 µM. The TGI (UO-31 renal) was 2.6 µM, the GI50 (HT29 colon) was 1.79 µM and the TGI (HT29 colon) was 3.18 µM. It also gave a GI50 (SNB-19 CNS) of 0.274 µM, a TGI (SNB-19 CNS) of 56.3 µM and a TGI (HL-60(TB) leukemia) of 4.31 µM.

Work on `COc1cc(-n2cc(-c3ccc(Cl)cc3)nc2SCc2cccc(C#N)c2)cc(OC)c1OC` yielded a GI50 (OVCAR-3 ovarian) of 50.3 µM, a TGI (OVCAR-3 ovarian) greater than 100 µM and a GI50 (MCF7 breast) of 51.3 µM. It also gave a TGI (MCF7 breast) greater than 100 µM, a GI50 (IGROV1 ovarian) of 54.9 µM and a TGI (IGROV1 ovarian) greater than 100 µM. For the same molecule, the GI50 (EKVX NSCLC) was 18.2 µM, the TGI (EKVX NSCLC) was 56.9 µM and the GI50 (MALME-3M melanoma) was 18.9 µM. For the same molecule, the TGI (MALME-3M melanoma) was 60.2 µM, the GI50 (HCC-2998 colon) was greater than 100 µM and the TGI (HCC-2998 colon) was greater than 100 µM. The GI50 (K-562 leukemia) was greater than 100 µM, the TGI (K-562 leukemia) was greater than 100 µM and the GI50 (NCI/ADR-RES ovarian) was 94.7 µM. It also gave a TGI (NCI/ADR-RES ovarian) greater than 100 µM, a GI50 (MDA-MB-231 breast) of 73.5 µM and a TGI (MDA-MB-231 breast) greater than 100 µM. It also gave a GI50 (HS 578T breast) of 34.2 µM, a TGI (HS 578T breast) greater than 100 µM and a GI50 (OVCAR-4 ovarian) of 20.9 µM. It also gave a TGI (OVCAR-4 ovarian) of 74.7 µM, a GI50 (M14 melanoma) greater than 100 µM and a TGI (M14 melanoma) greater than 100 µM. It also gave a GI50 (CCRF-CEM leukemia) greater than 100 µM, a TGI (CCRF-CEM leukemia) greater than 100 µM and a GI50 (U251 CNS) of 44.1 µM. It also gave a TGI (U251 CNS) greater than 100 µM, a GI50 (OVCAR-5 ovarian) greater than 100 µM and a TGI (OVCAR-5 ovarian) greater than 100 µM. The GI50 (LOX IMVI melanoma) was greater than 100 µM, the TGI (LOX IMVI melanoma) was greater than 100 µM and the GI50 (HCT-15 colon) was greater than 100 µM. For the same molecule, the TGI (HCT-15 colon) was greater than 100 µM, the GI50 (SNB-75 CNS) was 0.433 µM and the TGI (SNB-75 CNS) was 9.77 µM. It also gave a GI50 (RPMI-8226 leukemia) greater than 100 µM, a TGI (RPMI-8226 leukemia) greater than 100 µM and a GI50 (NCI-H226 lung) of 41.3 µM. The TGI (NCI-H226 lung) was greater than 100 µM, the GI50 (NCI-H23 lung) was 37.5 µM and the TGI (NCI-H23 lung) was greater than 100 µM. It also gave a GI50 (SK-OV-3 ovarian) of 71.5 µM, a TGI (SK-OV-3 ovarian) greater than 100 µM and a GI50 (HCT-116 colon) of 37.3 µM. The TGI (HCT-116 colon) was greater than 100 µM, the GI50 (SF-268 CNS) was 39.4 µM and the TGI (SF-268 CNS) was greater than 100 µM. For the same molecule, the GI50 (SW-620 colon) was 91.5 µM, the TGI (SW-620 colon) was greater than 100 µM and the GI50 (MDA-MB-435) was 82.9 µM. For the same molecule, the TGI (MDA-MB-435) was greater than 100 µM, the GI50 (CAKI-1 renal) was 38.5 µM and the TGI (CAKI-1 renal) was greater than 100 µM. The GI50 (KM12 colon) was greater than 100 µM, the TGI (KM12 colon) was greater than 100 µM and the GI50 (UACC-62 melanoma) was 21.9 µM. For the same molecule, the TGI (UACC-62 melanoma) was greater than 100 µM, the GI50 (786-0 renal) was 25.1 µM and the TGI (786-0 renal) was 92.5 µM. For the same molecule, the GI50 (SN12C renal) was 46 µM, the TGI (SN12C renal) was greater than 100 µM and the GI50 (NCI-H460 lung) was 95.5 µM. For the same molecule, the TGI (NCI-H460 lung) was greater than 100 µM, the GI50 (NCI-H522 lung) was 47 µM and the TGI (NCI-H522 lung) was greater than 100 µM. It also gave a GI50 (PC-3 prostate) of 30.4 µM, a TGI (PC-3 prostate) greater than 100 µM and a GI50 (COLO 205 colon) greater than 100 µM. For the same molecule, the TGI (COLO 205 colon) was greater than 100 µM, the GI50 (SK-MEL-28 melanoma) was 31.2 µM and the TGI (SK-MEL-28 melanoma) was greater than 100 µM. It also gave a GI50 (HOP-62 NSCLC) of 39.2 µM, a TGI (HOP-62 NSCLC) greater than 100 µM and a GI50 (SK-MEL-5 melanoma) of 34.8 µM. The TGI (SK-MEL-5 melanoma) was greater than 100 µM, the GI50 (A549 NSCLC) was greater than 100 µM and the TGI (A549 NSCLC) was greater than 100 µM. It also gave a GI50 (UO-31 renal) of 60.4 µM, a TGI (UO-31 renal) greater than 100 µM and a GI50 (HOP-92 NSCLC) of 18.8 µM. The TGI (HOP-92 NSCLC) was 86.5 µM, the GI50 (T-47D breast) was 21.4 µM and the TGI (T-47D breast) was greater than 100 µM. For the same molecule, the GI50 (HT29 colon) was 54.1 µM, the TGI (HT29 colon) was greater than 100 µM and the GI50 (SNB-19 CNS) was 48 µM. The TGI (SNB-19 CNS) was greater than 100 µM, the GI50 (SF-539 CNS) was 15.5 µM and the TGI (SF-539 CNS) was 48.1 µM. The GI50 (TK-10 renal) was 30.5 µM, the TGI (TK-10 renal) was greater than 100 µM and the GI50 (SR leukemia) was greater than 100 µM. The TGI (SR leukemia) was greater than 100 µM, the GI50 (DU-145 prostate) was 48.1 µM and the TGI (DU-145 prostate) was greater than 100 µM. The GI50 (MOLT-4 leukemia) was 37.5 µM, the TGI (MOLT-4 leukemia) was greater than 100 µM and the GI50 (ACHN renal) was 37.6 µM. The TGI (ACHN renal) was greater than 100 µM, the GI50 (A498 renal) was 33.3 µM and the TGI (A498 renal) was greater than 100 µM. The GI50 (HL-60(TB) leukemia) was greater than 100 µM, the TGI (HL-60(TB) leukemia) was greater than 100 µM and the GI50 (SF-295 CNS) was 48.1 µM. The TGI (SF-295 CNS) was greater than 100 µM.
